# Values joined by “and” are separate entries in the source; they are usually repeats but may differ in a detail not shown here. Identical values can stand only once. Like-named read-outs stand apart in the source and are kept apart here.
# Experiments:
# Caco-2 cells = conditions: for wound closure with proliferation inhibited: 100 nM, 4 mM hydroxyurea, 24 h, Caco-2 monolayers, n=33–35, p<0.05 vs vehicle; for EC50: read-out: EC50 (nM), ± SEM, wound healing, Caco-2 assay
# hERG = hERG (Homo sapiens, UniProt Q12809); conditions: at 30 μM
# [1] = for Clint: intrinsic clearance; for MLM t1/2: mouse liver microsomes
# [2] = PBS at pH = 7.4
# [3] = rat plasma
# [4] = at concentrations 10,000x higher than the effective dose; cited from earlier work
# [5] = after four days of continuous administration; cited from earlier work
# [6] = cited from earlier work
# [7] = cited from earlier work; remark: listed apart in the source
# FAK = FAK (Homo sapiens, UniProt Q05397); conditions: 1 h, relative to vehicle control, n = 8 measurements
# FAK, sequence (Q05397 whole entry): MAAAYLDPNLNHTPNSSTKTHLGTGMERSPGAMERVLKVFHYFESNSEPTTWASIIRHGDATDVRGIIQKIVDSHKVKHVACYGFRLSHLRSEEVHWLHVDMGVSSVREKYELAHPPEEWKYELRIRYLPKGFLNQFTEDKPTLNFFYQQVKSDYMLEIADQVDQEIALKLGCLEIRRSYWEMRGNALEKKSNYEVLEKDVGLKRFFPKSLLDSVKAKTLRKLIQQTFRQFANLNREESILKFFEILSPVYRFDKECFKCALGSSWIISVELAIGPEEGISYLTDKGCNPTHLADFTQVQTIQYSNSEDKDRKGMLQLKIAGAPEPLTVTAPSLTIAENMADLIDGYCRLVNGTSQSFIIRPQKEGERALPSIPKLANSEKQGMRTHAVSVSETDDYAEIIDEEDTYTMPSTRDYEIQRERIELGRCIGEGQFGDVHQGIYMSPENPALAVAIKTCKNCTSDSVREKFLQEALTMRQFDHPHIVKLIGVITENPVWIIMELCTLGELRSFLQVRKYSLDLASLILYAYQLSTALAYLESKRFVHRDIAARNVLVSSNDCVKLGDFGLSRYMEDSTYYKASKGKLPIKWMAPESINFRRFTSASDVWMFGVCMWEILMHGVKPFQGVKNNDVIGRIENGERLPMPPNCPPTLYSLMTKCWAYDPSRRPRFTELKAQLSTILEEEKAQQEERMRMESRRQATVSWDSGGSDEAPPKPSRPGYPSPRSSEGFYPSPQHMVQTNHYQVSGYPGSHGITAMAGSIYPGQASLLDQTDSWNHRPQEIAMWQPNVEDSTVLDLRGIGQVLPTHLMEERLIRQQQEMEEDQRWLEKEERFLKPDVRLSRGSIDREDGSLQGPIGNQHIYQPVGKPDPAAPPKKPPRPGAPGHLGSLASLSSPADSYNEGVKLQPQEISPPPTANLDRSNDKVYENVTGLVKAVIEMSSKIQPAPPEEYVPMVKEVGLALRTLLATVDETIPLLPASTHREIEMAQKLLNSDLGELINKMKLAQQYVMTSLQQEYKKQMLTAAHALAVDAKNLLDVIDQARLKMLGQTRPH
# hERG, sequence (Q12809 whole entry): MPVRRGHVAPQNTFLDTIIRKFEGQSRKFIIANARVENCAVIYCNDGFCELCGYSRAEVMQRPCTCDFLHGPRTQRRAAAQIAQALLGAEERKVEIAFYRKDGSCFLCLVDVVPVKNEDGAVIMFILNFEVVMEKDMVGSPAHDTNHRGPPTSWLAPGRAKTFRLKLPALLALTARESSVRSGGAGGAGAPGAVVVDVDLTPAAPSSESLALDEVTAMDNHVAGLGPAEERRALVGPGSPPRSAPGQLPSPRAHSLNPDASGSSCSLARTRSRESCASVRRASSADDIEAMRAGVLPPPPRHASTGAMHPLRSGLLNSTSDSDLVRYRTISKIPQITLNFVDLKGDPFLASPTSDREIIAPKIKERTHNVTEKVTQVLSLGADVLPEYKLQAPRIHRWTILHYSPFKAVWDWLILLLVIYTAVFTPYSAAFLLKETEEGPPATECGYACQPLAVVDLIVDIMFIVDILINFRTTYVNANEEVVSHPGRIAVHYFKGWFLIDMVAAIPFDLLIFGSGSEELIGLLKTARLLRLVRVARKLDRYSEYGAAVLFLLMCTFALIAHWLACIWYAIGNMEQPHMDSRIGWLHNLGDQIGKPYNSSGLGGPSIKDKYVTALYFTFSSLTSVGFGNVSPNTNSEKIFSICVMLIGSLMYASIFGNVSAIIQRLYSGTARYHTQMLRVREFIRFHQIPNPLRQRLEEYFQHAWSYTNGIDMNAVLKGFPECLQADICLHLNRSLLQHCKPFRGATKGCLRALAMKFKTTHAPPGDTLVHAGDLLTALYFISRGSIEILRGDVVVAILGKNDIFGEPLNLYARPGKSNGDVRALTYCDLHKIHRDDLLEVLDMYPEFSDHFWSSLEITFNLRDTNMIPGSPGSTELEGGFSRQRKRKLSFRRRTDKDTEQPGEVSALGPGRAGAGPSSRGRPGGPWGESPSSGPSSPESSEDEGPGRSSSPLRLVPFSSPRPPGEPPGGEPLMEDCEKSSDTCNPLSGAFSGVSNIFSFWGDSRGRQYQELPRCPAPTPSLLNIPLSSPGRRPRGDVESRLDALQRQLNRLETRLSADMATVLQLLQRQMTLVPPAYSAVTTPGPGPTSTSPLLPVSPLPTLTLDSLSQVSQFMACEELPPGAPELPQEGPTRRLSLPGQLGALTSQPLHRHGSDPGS
Structure (SMILES),"FAK-Tyr-397/FAK fold change, ± SEM (FAK; 100 nM)",further results
"CN(C)C(CNC(=O)Nc1cc(C(F)(F)F)ccc1N1CCOCC1)c1ccncc1.Cl (stereo not shown) [Compound 5aHCl, 1-(2-(dimethylamino)-2-(pyridin-4-yl)ethyl)-3-(2-morpholino-5-(trifluoromethyl)phenyl)urea hydrochloric salt]",–,"wound closure with proliferation inhibited (Caco-2 cells): accelerated; EC50 (Caco-2 cells): 3.01 ± 0.52 nM; hERG Inhibition % (hERG): 4.87%; Clint [1]: > 307 uL/min/mg protein; MLM t1/2 [1]: < 4.51 min; Solubility [2]: 1074 µg/mL; area under the curve ([3]; 10 mg/kg oral gavage): 3149 µg·h/mL; time of Cmax ([3]; 10 mg/kg oral gavage): 1 h; maximum concentration (Cmax) ([3]; 10 mg/kg oral gavage in saline, n = 4): 967 ng/mL; in vitro cytotoxicity [4]: no in vitro cytotoxicity; in vivo toxicity [5]: no in vivo toxicity; water solubility [6]: water-soluble; oral bioavailability [7]: orally bioavailable"
"CN(C)C(CNC(=O)Nc1cc(C(F)(F)F)ccc1N1CCOCC1)c1cccnc1 (stereo not shown) [Compound 5b, 1-(2-(Dimethylamino)-2-(pyridin-3-yl)ethyl)-3-(2-morpholino-5-(trifluoromethyl)phenyl)urea]",1.0±0.04 fold change,–
"CN(C)C(CNC(=O)Nc1cc(C(F)(F)F)ccc1N1CCOCC1)c1cccnc1.Cl (stereo not shown) [Compound 5bHCl, 1-(2-(Dimethylamino)-2-(pyridin-3-yl)ethyl)-3-(2-morpholino-5-(trifluoromethyl)phenyl)urea hydrochloric salt]",1.05±0.06 fold change,–
"CN(C)C(CNC(=O)Nc1cc(C(F)(F)F)ccc1N1CCOCC1)c1ccccn1 (stereo not shown) [Compound 5c, 1-(2-(Dimethylamino)-2-(pyridin-2-yl)ethyl)-3-(2-morpholino-5-(trifluoromethyl)phenyl)urea]",0.84±0.11 fold change,–
"CN(C)C(CNC(=O)Nc1cc(C(F)(F)F)ccc1N1CCOCC1)c1ccccn1.Cl (stereo not shown) [Compound 5cHCl, 1-(2-(Dimethylamino)-2-(pyridin-2-yl)ethyl)-3-(2-morpholino-5-(trifluoromethyl)phenyl)urea hydrochloric salt]",0.98±0.07 fold change,–
"CC(C)(CNC(=O)Nc1cc(C(F)(F)F)ccc1N1CCOCC1)c1ccncc1 [Compound 6, 1-(2-Methyl-2-(pyridin-4-yl)propyl)-3-(2-morpholino-5-(trifluoromethyl)phenyl)urea]",1.09±0.12 fold change,–
"CC(C)(CNC(=O)Nc1cc(C(F)(F)F)ccc1N1CCOCC1)c1ccncc1.Cl [Compound 6HCl, 1-(2-Methyl-2-(pyridin-4-yl)propyl)-3-(2-morpholino-5-(trifluoromethyl)phenyl)urea hydrochloric salt]",1.11±0.12 fold change,–
"O=C(NCCc1ccncc1)Nc1cc(C(F)(F)F)ccc1N1CCOCC1 [Compound 7, 1-(2-Morpholino-5-(trifluoromethyl)phenyl)-3-(2-(pyridin-4-yl)ethyl)urea]",0.98±0.07 fold change,–
"Cl.O=C(NCCc1ccncc1)Nc1cc(C(F)(F)F)ccc1N1CCOCC1 [Compound 7HCl, 1-(2-Morpholino-5-(trifluoromethyl)phenyl)-3-(2-(pyridin-4-yl)ethyl)urea hydrochloric salt]",0.91±0.13 fold change,–
"O=C(NCCc1cnccn1)Nc1cc(C(F)(F)F)ccc1N1CCOCC1 [Compound 8, 1-(2-Morpholino-5-(trifluoromethyl)phenyl)-3-(2-(pyrazin-2-yl)ethyl)urea]",0.93±0.08 fold change,–
"Cl.O=C(NCCc1cnccn1)Nc1cc(C(F)(F)F)ccc1N1CCOCC1 [Compound 8HCl, 1-(2-Morpholino-5-(trifluoromethyl)phenyl)-3-(2-(pyrazin-2-yl)ethyl)urea hydrochloric salt]",1.05±0.07 fold change,–
"COC(=O)C(Cc1ccncc1)NC(=O)Nc1cc(C(F)(F)F)ccc1N1CCOCC1 (stereo not shown) [Compound 9a, Methyl 2-(3-(2-Morpholino-5-(trifluoromethyl)phenyl)ureido)-3-(pyridin-4-yl)propanoate]",1.03±0.08 fold change,–
"COCCNC(=O)C(Cc1ccncc1)NC(=O)Nc1cc(C(F)(F)F)ccc1N1CCOCC1 (stereo not shown) [Compound 9b, N-(2-Methoxyethyl)-2-(3-(2-morpholino-5-(trifluoromethyl)phenyl)ureido)-3-(pyridin-4-yl)propanamide]",0.97±0.08 fold change,–
"CN(C)C(CNC(=O)Nc1ccccc1N1CCOCC1)c1ccncc1 (stereo not shown) [Compound 10a, 1-(2-(Dimethylamino)-2-(pyridin-4-yl)ethyl)-3-(2-morpholinophenyl)urea]",1.23±0.07 fold change,–
"CN(C)C(CNC(=O)Nc1cc(F)ccc1N1CCOCC1)c1ccncc1 (stereo not shown) [Compound 10b, 1-(2-(Dimethylamino)-2-(pyridin-4-yl)ethyl)-3-(5-fluoro-2-morpholinophenyl)urea]",1.12 fold change and 1.12±0.05 fold change,–
"CN(C)C(CNC(=O)Nc1cc(F)ccc1N1CCOCC1)c1ccncc1.Cl (stereo not shown) [Compound 10bHCl, 1-(2-(Dimethylamino)-2-(pyridin-4-yl)ethyl)-3-(5-fluoro-2-morpholinophenyl)urea hydrochloric salt]",1.39 fold change,"FAK-Tyr-397/FAK fold change, ± SEM (FAK; 10 nM): 1.25 fold change; wound closure with proliferation inhibited (Caco-2 cells): accelerated; EC50 (Caco-2 cells): 2.36 ± 0.58 nM; hERG Inhibition % (hERG): 15.2%; Clint [1]: > 307 uL/min/mg protein; MLM t1/2 [1]: <4.51 min; Solubility [2]: 985 µg/mL"
"Cc1ccc(N2CCOCC2)c(NC(=O)NCC(c2ccncc2)N(C)C)c1 (stereo not shown) [Compound 10c, 1-(2-(Dimethylamino)-2-(pyridin-4-yl)ethyl)-3-(5-methyl-2-morpholinophenyl)urea]",0.89±0.05 fold change,–
"CN(C)C(CNC(=O)Nc1cc(C#N)ccc1N1CCOCC1)c1ccncc1 (stereo not shown) [Compound 10d, 1-(5-Cyano-2-morpholinophenyl)-3-(2-(dimethylamino)-2-(pyridin-4-yl)ethyl)urea]",0.83±0.07 fold change,–
"CN(C)C(CNC(=O)Nc1cc(Cl)ccc1N1CCOCC1)c1ccncc1 (stereo not shown) [Compound 10e, 1-(5-Chloro-2-morpholinophenyl)-3-(2-(dimethylamino)-2-(pyridin-4-yl)ethyl)urea]",0.82±0.06 fold change,–
"CN(C)C(CNC(=O)Nc1cc(C(F)F)ccc1N1CCOCC1)c1ccncc1 (stereo not shown) [Compound 10f, 1-(5-(Difluoromethyl)-2-morpholinophenyl)-3-(2-(dimethylamino)-2-(pyridin-4-yl)ethyl)urea]",1.2±0.08 fold change,–
"CN(C)C(CNC(=O)Nc1cc(OC(F)(F)F)ccc1N1CCOCC1)c1ccncc1 (stereo not shown) [Compound 10g, 1-(2-(Dimethylamino)-2-(pyridin-4-yl)ethyl)-3-(2-morpholino-5-(trifluoromethoxy)phenyl)urea]",1.12±0.03 fold change,–
"COc1ccc(N2CCOCC2)c(NC(=O)NCC(c2ccncc2)N(C)C)c1 (stereo not shown) [Compound 10h, 1-(2-(Dimethylamino)-2-(pyridin-4-yl)ethyl)-3-(5-methoxy-2-morpholinophenyl)urea]",1.29±0.07 fold change,–
"COCOc1ccc(N2CCOCC2)c(NC(=O)NCC(c2ccncc2)N(C)C)c1 (stereo not shown) [Compound 10i, 1-(2-(Dimethylamino)-2-(pyridin-4-yl)ethyl)-3-(5-(methoxymethoxy)-2-morpholinophenyl)urea]",1.28±0.1 fold change,–
"COCCOc1ccc(N2CCOCC2)c(NC(=O)NCC(c2ccncc2)N(C)C)c1 (stereo not shown) [Compound 10j, 1-(2-(Dimethylamino)-2-(pyridin-4-yl)ethyl)-3-(5-(2-methoxyethoxy)-2-morpholinophenyl)urea]",1.05±0.1 fold change,–
"COCCOCCOc1ccc(N2CCOCC2)c(NC(=O)NCC(c2ccncc2)N(C)C)c1 (stereo not shown) [Compound 10k, 1-(2-(Dimethylamino)-2-(pyridin-4-yl)ethyl)-3-(5-(2-(2-methoxyethoxy)ethoxy)-2-morpholinophenyl)urea]",1.32±0.03 fold change,–
"COCCOCCOc1ccc(N2CCOCC2)c(NC(=O)NCC(c2ccncc2)N(C)C)c1.Cl (stereo not shown) [Compound 10kHCl, 1-(2-(Dimethylamino)-2-(pyridin-4-yl)ethyl)-3-(5-(2-(2-methoxyethoxy)ethoxy)-2-morpholinophenyl)urea hydrochloric salt]",–,wound closure with proliferation inhibited (Caco-2 cells): accelerated; EC50 (Caco-2 cells): 3.01 ± 0.51 nM; hERG Inhibition % (hERG): 0.608%; Clint [1]: 93.0 uL/min/mg protein; MLM t1/2 [1]: 14.9 min; Solubility [2]: 1018 µg/mL
"COCCOCCOCCOc1ccc(N2CCOCC2)c(NC(=O)NCC(c2ccncc2)N(C)C)c1 (stereo not shown) [Compound 10l, 1-(2-(Dimethylamino)-2-(pyridin-4-yl)ethyl)-3-(5-(2-(2-(2-methoxyethoxy)ethoxy)ethoxy)-2-morpholinophenyl)urea]",1.13±0.1 fold change,–
"CN(C)C(CNC(=O)Nc1cc(OCCOCCO)ccc1N1CCOCC1)c1ccncc1 (stereo not shown) [Compound 10m, 1-(2-(Dimethylamino)-2-(pyridin-4-yl)ethyl)-3-(5-(2-(2-hydroxyethoxy)ethoxy)-2-morpholinophenyl)urea]",0.93±0.1 fold change,–
